Test results reported in patent US20100069480A1, “METHODS AND COMPOSITIONS FOR THE TREATMENT OF CANCER” (Bionovo, Inc. A Delaware Corporation, priority 2008, published 2010).

How the values were obtained:
Assay type in all cases: cell-based, human
[1] = system: MDA MB 231 and SKBr3 breast cancer cells; assay: mode of cell death: Annexin V binding, DNA fragmentation
Protocol: The following parameters were examined: • 1. Induction of the loss of the mitochondrial transmembrane potential (MTP). […] Induction of reactive oxygen species (ROS). Induced fluorescence from the cell permeable indicators of ROS such as dihydroethidium (specific for superoxide) (FIG. 2), CM-H2DCFDA (most types of ROS) (FIG. 1) and MitoSOX (mitochondrially derived superoxide) (FIG. 3) was studied using a fluorescent plate reader and FACS. • 3. Compounds were also tested for the potential cellular sources of ROS induced using either specific indicators for ROS of mitochondrial origin, and/or specific inhibitors of ROS production by known sources such as mitochondria, ubiquinone oxidoreductase NQO (mitochondrial complex I) and NADPH oxidases. • 4. Compounds were tested for induction of DNA damage using test known as comet assay that allows detection of DNA damage in individual cells. (FIG. 4) • 5. The induction of death in cells treated with the compounds was examined using propidium iodide test for cell permeability followed by analysis on FACS. • 6. The mode of cell death (i.e., apoptosis versus necrosis) was studied using several criteria: conversion of cells to positivity for binding Annexin V; DNA fragmentation (characteristic of apoptotic death) and decrease in cellular ATP levels (commonly observed during necrotic death) (FIG. 5). 1. Induction of the loss of the mitochondrial transmembrane potential (MTP). […] Induction of reactive oxygen species (ROS). Induced fluorescence from the cell permeable indicators of ROS such as dihydroethidium (specific for superoxide) (FIG. 2), CM-H2DCFDA (most types of ROS) (FIG. 1) and MitoSOX (mitochondrially derived superoxide) (FIG. 3) was studied using a fluorescent plate reader and FACS. • 3. Compounds were also tested for the potential cellular sources of ROS induced using either specific indicators for ROS of mitochondrial origin, and/or specific inhibitors of ROS production by known sources such as mitochondria, ubiquinone oxidoreductase NQO (mitochondrial complex I) and NADPH oxidases. • 4. […]

[2] = system: MDA MB 231 and SKBr3 breast cancer cells; assay: cellular ATP content, ATP bioluminescence assay
Protocol: (§1) The following parameters were examined: • 1. Induction of the loss of the mitochondrial transmembrane potential (MTP). […] Induction of reactive oxygen species (ROS). Induced fluorescence from the cell permeable indicators of ROS such as dihydroethidium (specific for superoxide) (FIG. 2), CM-H2DCFDA (most types of ROS) (FIG. 1) and MitoSOX (mitochondrially derived superoxide) (FIG. 3) was studied using a fluorescent plate reader and FACS. • 3. Compounds were also tested for the potential cellular sources of ROS induced using either specific indicators for ROS of mitochondrial origin, and/or specific inhibitors of ROS production by known sources such as mitochondria, ubiquinone oxidoreductase NQO (mitochondrial complex I) and NADPH oxidases. • 4. Compounds were tested for induction of DNA damage using test known as comet assay that allows detection of DNA damage in individual cells. (FIG. 4) • 5. The induction of death in cells treated with the compounds was examined using propidium iodide test for cell permeability followed by analysis on FACS. • 6. […] Induced fluorescence from the cell permeable indicators of ROS such as dihydroethidium (specific for superoxide) (FIG. 2), CM-H2DCFDA (most types of ROS) (FIG. 1) and MitoSOX (mitochondrially derived superoxide) (FIG. 3) was studied using a fluorescent plate reader and FACS. • 3. […]

[3] = system: MDA MB 231 and SKBr3 breast cancer cells; assay: induction of ROS, CM-H2DCFDA fluorescence; details: for induction of cellular ROS: CM-H2DCFDA probe
Protocol: (§2) The following parameters were examined: • 1. Induction of the loss of the mitochondrial transmembrane potential (MTP). […] Induction of reactive oxygen species (ROS). Induced fluorescence from the cell permeable indicators of ROS such as dihydroethidium (specific for superoxide) (FIG. 2), CM-H2DCFDA (most types of ROS) (FIG. 1) and MitoSOX (mitochondrially derived superoxide) (FIG. 3) was studied using a fluorescent plate reader and FACS. • 3. Compounds were also tested for the potential cellular sources of ROS induced using either specific indicators for ROS of mitochondrial origin, and/or specific inhibitors of ROS production by known sources such as mitochondria, ubiquinone oxidoreductase NQO (mitochondrial complex I) and NADPH oxidases. • 4. Compounds were tested for induction of DNA damage using test known as comet assay that allows detection of DNA damage in individual cells. (FIG. 4) • 5. The induction of death in cells treated with the compounds was examined using propidium iodide test for cell permeability followed by analysis on FACS. • 6. The mode of cell death (i.e., apoptosis versus necrosis) was studied using several criteria: conversion of cells to positivity for binding Annexin V; DNA fragmentation (characteristic of apoptotic death) and decrease in cellular ATP levels (commonly observed during necrotic death) (FIG. 5). […]
DCFDA is nonfluorescent in reduced form and is readily membrane-permeant. Cellular esterases cleave its acetate groups. The thiol-reactive chloromethyl group then binds to cellular thiols, trapping the dye inside the cell, where oxidation converts it to the fluorescent form. CM-H2DCFDA is oxidized by cellular hydrogen peroxide, hydroxyl radicals, and various free radical products lying downstream from hydrogen peroxide. It is relatively insensitive to oxidation by superoxide. However, because hydrogen peroxide is produced by dismutation of superoxide, CM-H2DCFDA serves as an indirect indicator of superoxide production.
FIG. 1. […] The indicated compounds were added to cells at 20 μg/ml growth medium, followed by addition of 10 μM CM-H2 DCFDA. Inhibitor of mitochondrial respiration, NaN3, was added at 10 mM. After 30 minute incubation, cells were washed in PBS and analyzed on FACScan for fluorescence.

[4] = system: MDA MB 231 and SKBr3 breast cancer cells; assay: mitochondrially derived superoxide, MitoSOX
Protocol: as §1

[5] = system: MDA MB 231 and SKBr3 breast cancer cells; assay: DNA damage, comet assay
Protocol: as §2

[6] = Table 11, confirmed in two breast cancer cell lines

| Structure (SMILES) | cell death and its mode [1] | change in cellular ATP levels [2] | Induction of ROS (fold) ([3]; Table 11, confirmed in two breast cancer cell lines, listed as cmpd 9) | Induction of ROS (fold) ([3]; Table 12) | conversion of MitoSOX, detector of mitochondrially derived superoxide [4] | induction of DNA damage [5] | induction of cellular ROS [3] | Induction of ROS (fold) [3, 6] |
| --- | --- | --- | --- | --- | --- | --- | --- | --- |
| O=c1cc(-c2ccc(O)cc2)oc2cc(O)cc(O)c12 [Apigenin] | induce significant cell death characterized as apoptotic | slight but consistent increase in ATP levels | 1.5 fold | 1.5 fold | converted to its fluorescent form | do not induce DNA damage | – | – |
| O=C1CC(c2ccc(O)cc2)Oc2cc(O)c(O)c(O)c21 (centres unmarked) [Carthamidin] | – | – | – | – | – | induce DNA damage | induce ROS, but of extra-mitochondrial origin | – |
| O=C1CC(c2ccc(O)cc2)Oc2c(O)c(O)cc(O)c21 (centres unmarked) [Isocarthamidin] | – | – | – | – | – | induce DNA damage | induce ROS, but of extra-mitochondrial origin | – |
| O=c1cc(-c2ccc(O)cc2)oc2c(O)c(O)cc(O)c12 [Isoscutellarein] | cell death that has hallmarks of programmed necrosis | – | – | 1.5 fold | – | induce DNA damage | induce ROS, but of extra-mitochondrial origin | 1.5 fold |
| O=c1cc(-c2ccc(O)cc2)oc2cc(O)c(O)c(O)c12 [Scutellarein] | cell death that has hallmarks of programmed necrosis | – | – | – | – | induce DNA damage | induce ROS, but of extra-mitochondrial origin | 2.4 fold |
| O=c1cc(-c2ccc(O)cc2)oc2cc(O)cc(O)c12 [cmpd 4] | – | – | – | – | – | – | – | 0.6 fold |
